Test results taken from ChEMBL document CHEMBL1201862, “PubChem BioAssay data set” (2004).
Activity calls are given as the source filed them.

Assays:
Tumor necrosis factor = Tumor necrosis factor (Homo sapiens, UniProt P01375); experiment: TNFa-triggered NF-kB activation inhibitors, SAR follow-up, cell-based, revised (AID 2337); assay type: functional
[1] = target: T1, Nucleotide-binding oligomerization domain-containing protein 1 (Homo sapiens, UniProt Q9Y239); experiment: NOD1 signaling inhibitors, SAR follow-up, revised (AID 2333); assay type: functional
T1 sequence (Q9Y239 whole entry): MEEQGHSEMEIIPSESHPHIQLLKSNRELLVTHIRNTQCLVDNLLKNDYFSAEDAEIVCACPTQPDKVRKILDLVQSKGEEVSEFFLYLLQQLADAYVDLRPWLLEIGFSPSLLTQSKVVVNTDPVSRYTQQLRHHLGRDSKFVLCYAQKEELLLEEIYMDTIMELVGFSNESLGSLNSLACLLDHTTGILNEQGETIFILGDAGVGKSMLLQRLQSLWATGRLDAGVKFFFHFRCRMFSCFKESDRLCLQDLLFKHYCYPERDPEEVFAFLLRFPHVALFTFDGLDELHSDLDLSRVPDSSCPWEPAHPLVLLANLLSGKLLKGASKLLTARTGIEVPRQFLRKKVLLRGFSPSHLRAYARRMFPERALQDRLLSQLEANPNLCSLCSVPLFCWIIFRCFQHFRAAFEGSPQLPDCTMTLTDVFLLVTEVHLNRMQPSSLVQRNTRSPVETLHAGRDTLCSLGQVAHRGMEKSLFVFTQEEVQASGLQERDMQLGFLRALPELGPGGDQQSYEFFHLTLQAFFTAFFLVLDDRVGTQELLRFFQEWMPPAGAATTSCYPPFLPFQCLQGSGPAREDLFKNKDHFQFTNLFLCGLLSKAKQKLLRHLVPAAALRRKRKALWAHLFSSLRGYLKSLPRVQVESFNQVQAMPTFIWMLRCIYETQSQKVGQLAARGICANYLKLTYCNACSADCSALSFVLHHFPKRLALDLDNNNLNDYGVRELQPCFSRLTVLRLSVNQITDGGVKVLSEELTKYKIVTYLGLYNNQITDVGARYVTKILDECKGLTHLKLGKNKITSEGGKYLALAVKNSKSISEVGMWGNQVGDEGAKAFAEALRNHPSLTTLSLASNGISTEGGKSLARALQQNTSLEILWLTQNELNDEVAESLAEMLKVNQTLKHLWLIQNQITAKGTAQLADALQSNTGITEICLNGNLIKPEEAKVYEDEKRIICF

[2] = target: Nucleotide-binding oligomerization domain-containing protein 2 (Homo sapiens, UniProt Q9HC29); experiment: PubChem AID 2334; assay type: functional
Nucleotide-binding oligomerization domain-containing protein 2, sequence (Q9HC29 whole entry, the tested form may be a part): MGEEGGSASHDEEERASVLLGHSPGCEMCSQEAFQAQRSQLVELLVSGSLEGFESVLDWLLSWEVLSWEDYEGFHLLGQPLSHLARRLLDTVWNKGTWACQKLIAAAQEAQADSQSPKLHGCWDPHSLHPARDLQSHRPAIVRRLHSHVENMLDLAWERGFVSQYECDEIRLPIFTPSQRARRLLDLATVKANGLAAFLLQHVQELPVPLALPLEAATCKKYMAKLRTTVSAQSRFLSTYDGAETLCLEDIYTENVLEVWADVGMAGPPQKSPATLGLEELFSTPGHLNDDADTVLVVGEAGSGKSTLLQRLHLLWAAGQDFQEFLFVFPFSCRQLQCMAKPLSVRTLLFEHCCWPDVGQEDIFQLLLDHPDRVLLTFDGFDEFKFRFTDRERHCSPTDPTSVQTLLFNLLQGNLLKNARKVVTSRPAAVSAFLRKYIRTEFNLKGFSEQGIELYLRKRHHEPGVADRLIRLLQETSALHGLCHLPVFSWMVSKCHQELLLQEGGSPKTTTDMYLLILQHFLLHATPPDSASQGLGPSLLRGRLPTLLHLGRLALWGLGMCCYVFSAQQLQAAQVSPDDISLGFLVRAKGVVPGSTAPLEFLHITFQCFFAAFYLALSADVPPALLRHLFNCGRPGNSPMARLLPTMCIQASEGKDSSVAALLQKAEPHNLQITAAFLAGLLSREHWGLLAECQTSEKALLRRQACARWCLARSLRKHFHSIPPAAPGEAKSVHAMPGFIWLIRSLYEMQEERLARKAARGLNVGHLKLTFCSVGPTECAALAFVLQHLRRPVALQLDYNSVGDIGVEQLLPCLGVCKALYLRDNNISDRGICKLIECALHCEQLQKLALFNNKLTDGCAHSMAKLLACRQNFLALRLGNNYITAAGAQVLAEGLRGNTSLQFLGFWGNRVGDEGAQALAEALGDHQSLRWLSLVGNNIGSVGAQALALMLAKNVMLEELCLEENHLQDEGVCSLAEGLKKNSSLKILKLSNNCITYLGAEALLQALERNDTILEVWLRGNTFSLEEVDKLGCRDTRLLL

HEK293 = experiment: cells; details: Homo sapiens
Leucine aminopeptidase = target: T2, Leucine aminopeptidase (Plasmodium falciparum 3D7, UniProt Q8IL11); experiment: P. falciparum M17LAP inhibitors, primary screen, biochemical, fluorogenic H-Leu-NHMec substrate, 1536-well (AID 1619); assay type: functional
T2 sequence (Q8IL11 whole entry): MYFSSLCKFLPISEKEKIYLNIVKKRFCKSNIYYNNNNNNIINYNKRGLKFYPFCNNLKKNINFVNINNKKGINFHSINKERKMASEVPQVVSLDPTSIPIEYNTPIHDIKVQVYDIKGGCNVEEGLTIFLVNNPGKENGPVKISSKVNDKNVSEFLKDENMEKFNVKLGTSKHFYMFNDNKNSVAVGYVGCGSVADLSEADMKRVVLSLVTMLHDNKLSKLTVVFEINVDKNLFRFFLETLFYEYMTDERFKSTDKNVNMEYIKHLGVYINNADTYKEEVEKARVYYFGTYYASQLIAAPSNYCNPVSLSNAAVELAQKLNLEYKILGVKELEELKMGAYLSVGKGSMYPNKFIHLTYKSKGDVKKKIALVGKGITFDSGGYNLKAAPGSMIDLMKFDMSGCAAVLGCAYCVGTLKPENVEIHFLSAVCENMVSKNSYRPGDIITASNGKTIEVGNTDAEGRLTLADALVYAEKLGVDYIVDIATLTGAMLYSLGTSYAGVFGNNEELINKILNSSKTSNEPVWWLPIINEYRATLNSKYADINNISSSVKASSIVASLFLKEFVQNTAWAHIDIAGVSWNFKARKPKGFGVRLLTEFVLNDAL

[3] = target: Peroxisome proliferator-activated receptor gamma/Nuclear receptor coactivator 2 (Homo sapiens, UniProt P37231); assay type: functional;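 also: agonist potency for raising coactivator recruitment to the receptor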
[4] = target: Peroxisome proliferator-activated receptor gamma/Nuclear receptor coactivator 1 (Homo sapiens, UniProt P37231); assay type: functional;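 also: agonist potency as compounds enhance coactivator SRC-1 recruitment to PPARgamma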
[5] = target: Photoreceptor-specific nuclear receptor (Homo sapiens, UniProt Q9Y5X4); assay type: functional;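 also: potency for compounds that break the NR2E3 corepressor complex and count as activators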
Photoreceptor-specific nuclear receptor, sequence (Q9Y5X4 whole entry): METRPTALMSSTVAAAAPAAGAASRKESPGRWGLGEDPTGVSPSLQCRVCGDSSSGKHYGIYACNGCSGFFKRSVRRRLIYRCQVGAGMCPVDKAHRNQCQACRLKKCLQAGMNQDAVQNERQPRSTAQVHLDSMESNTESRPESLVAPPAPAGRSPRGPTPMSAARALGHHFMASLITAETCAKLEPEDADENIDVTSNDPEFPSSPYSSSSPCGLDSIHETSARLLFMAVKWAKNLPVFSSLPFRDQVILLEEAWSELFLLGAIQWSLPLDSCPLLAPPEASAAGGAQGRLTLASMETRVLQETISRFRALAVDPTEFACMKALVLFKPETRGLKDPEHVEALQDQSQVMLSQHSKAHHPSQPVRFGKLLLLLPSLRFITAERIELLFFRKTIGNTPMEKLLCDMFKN

[6] = target: Peroxisome proliferator-activated receptor gamma/Nuclear receptor coactivator 3 (Homo sapiens, UniProt P37231); assay type: functional;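 also: agonist potency for raising coactivator recruitment to the receptor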
Peroxisome proliferator-activated receptor gamma/Nuclear receptor coactivator 3, sequence (P37231 whole entry): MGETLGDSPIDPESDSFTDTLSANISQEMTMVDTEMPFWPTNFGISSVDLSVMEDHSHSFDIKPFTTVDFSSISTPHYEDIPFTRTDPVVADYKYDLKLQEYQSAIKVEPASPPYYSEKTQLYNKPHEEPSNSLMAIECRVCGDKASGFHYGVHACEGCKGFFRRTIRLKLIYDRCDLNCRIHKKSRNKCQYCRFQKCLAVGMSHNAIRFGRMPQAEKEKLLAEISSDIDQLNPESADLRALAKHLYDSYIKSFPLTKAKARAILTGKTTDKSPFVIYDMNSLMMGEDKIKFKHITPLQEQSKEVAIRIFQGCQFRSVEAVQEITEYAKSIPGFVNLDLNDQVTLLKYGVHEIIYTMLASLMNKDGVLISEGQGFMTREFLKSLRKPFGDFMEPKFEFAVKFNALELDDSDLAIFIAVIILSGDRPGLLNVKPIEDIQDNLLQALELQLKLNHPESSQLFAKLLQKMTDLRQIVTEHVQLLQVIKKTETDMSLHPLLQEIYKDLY
Peroxisome proliferator-activated receptor gamma/Nuclear receptor coactivator 3, sequence (Q9Y6Q9 whole entry, further chain): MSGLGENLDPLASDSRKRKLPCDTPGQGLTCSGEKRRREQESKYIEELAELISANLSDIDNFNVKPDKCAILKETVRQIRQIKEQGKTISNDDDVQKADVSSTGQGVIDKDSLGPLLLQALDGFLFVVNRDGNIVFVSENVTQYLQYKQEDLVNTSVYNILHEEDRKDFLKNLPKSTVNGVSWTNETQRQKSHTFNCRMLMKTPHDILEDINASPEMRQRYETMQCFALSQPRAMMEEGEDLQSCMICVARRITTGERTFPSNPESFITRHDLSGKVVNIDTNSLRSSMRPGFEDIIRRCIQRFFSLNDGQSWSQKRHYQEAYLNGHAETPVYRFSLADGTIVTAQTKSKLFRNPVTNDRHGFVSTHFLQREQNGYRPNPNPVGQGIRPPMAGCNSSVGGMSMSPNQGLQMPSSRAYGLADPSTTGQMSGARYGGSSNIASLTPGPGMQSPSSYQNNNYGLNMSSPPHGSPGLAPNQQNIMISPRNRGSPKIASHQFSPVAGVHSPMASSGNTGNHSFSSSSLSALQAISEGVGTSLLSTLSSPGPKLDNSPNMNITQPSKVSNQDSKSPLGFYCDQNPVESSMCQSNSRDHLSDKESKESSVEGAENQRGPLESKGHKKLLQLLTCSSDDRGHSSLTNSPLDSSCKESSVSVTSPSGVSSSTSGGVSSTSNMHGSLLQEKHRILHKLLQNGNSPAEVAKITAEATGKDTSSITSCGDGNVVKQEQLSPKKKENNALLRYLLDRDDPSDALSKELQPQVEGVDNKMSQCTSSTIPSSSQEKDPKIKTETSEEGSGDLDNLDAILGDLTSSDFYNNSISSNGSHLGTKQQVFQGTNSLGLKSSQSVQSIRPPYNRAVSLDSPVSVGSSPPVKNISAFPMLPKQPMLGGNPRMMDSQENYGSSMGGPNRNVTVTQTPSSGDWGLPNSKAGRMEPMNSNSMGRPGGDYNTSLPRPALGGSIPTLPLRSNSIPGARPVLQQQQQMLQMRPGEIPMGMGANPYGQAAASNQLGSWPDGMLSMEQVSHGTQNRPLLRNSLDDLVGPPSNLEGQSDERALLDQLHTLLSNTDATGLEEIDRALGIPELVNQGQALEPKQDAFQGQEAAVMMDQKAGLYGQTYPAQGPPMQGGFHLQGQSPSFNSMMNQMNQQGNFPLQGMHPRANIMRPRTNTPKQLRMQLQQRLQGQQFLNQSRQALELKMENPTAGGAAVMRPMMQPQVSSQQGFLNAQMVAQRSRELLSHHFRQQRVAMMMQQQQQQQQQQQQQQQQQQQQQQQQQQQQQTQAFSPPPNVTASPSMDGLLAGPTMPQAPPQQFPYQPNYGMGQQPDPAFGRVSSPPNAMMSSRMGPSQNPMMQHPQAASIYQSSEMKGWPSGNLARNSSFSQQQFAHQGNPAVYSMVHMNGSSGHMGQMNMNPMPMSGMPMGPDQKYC

[7] = target: Peroxisome proliferator-activated receptor gamma/Nuclear receptor corepressor 2 (Homo sapiens, UniProt P37231+Q9Y618); assay type: functional
[8] = inhibitors of firefly luciferase expression or activity, dose response, H4 neuroglioma cells, luminescence (AID 1990); assay type: functional, cell-based
[9] = target: Luciferin 4-monooxygenase (Photinus pyralis, UniProt P08659); experiment: Counter Screen for Luciferase-based Assay Positives. [Related pubchem assays: 620, 618, 411 ]
Luciferin 4-monooxygenase, sequence (P08659 whole entry): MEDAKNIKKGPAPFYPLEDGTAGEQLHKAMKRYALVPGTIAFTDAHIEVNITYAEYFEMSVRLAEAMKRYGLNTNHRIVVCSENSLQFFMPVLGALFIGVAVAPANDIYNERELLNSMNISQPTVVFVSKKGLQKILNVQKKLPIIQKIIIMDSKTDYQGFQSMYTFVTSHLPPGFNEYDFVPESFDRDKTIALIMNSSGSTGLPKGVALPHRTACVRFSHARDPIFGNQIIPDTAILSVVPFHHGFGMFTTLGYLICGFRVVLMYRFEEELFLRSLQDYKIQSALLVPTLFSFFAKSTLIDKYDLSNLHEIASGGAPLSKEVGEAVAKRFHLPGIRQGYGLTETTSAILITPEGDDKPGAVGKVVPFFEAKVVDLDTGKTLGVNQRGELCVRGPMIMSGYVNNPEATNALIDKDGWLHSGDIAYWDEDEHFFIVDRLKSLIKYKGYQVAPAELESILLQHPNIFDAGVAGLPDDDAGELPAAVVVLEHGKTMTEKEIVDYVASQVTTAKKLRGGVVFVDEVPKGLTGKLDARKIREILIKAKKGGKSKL

[10] = target: Glyceraldehyde-3-phosphate dehydrogenase (Homo sapiens, UniProt P04406)
Glyceraldehyde-3-phosphate dehydrogenase, sequence (P04406 whole entry): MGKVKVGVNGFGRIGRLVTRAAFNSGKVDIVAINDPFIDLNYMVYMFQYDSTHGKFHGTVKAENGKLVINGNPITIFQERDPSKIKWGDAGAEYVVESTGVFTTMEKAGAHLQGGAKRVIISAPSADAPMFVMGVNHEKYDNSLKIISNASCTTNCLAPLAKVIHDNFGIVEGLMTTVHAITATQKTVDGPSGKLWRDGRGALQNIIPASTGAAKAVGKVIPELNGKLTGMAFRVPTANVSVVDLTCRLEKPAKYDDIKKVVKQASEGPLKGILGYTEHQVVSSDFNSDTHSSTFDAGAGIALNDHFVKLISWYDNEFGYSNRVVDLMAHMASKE

[11] = Luminescence Cell-Based Dose Response HTS to Identify Inhibitors of 5'UTR Stem-Loop Driven Prion Protein mRNA Translation in H4 Neuroglioblastoma Cells. [Related pubchem assays: 1827 (Project Summary), 1813 (Primary HTS)]; assay type: functional
[12] = inhibitors of SNCA 5'UTR-driven reporter translation, confirmation, H4 neuroglioma cells, luminescence (AID 1988); assay type: functional, cell-based
HT-1080 = experiment: cytotoxicity in HT1080 fibrosarcoma cells, cell-based, fluorescence readout (AID 620); assay type: functional; details: Homo sapiens
Cytochrome P450 2C19 = Cytochrome P450 2C19 (Homo sapiens, UniProt P33261); experiment: Cytochrome panel assay with activity outcomes. Panel member name: p450-cyp2c19 Compounds with AC50 equal or less than 10 uM are considered active; assay type: functional; details: read-out: AC50
[13] = A cytotoxicity screen of small molecule inhibitors of the PhoP region in Salmonella typhi identified in the primary screen. [Related pubchem assays: 1850, 1864, 1985 ]; assay type: functional
[14] = inhibitors of intracellular T. cruzi replication, confirmation, NIH3T3 host cells, beta-gal luminescence (AID 2044); assay type: functional, cell-based;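 also: intracellular parasites grown in NIH/3T3 mouse fibroblasts as host cells; luminescent beta-galactosidase reporter signal from transgenic T. cruzi replicating inside host cells; inhibitors lower the luminescence signal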
[15] = cytotoxicity toward NIH3T3 fibroblasts, dose response, counter-screen, cell-based, ATP luminescence, mouse fibroblasts (AID 2010); assay type: functional;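 also: cells exposed to compound for about 90 hours before reading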
[16] = HepG2 cell cytotoxicity, dose response, cytotoxicity control for non-replicating M. tuberculosis project (AID 489018); assay type: functional; details: Mycobacterium tuberculosis
cells [17] = assay type: functional
[18] = Shn3 3'UTR reporter inhibitors, dose response, cell-based, Clone20 osteoblasts, firefly luciferase, cherry-picked (AID 624132); assay type: functional;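 also: firefly luciferase luminescence from reporter carrying the Shn3 3'UTR in osteoblasts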
[19] = HepG2 cell cytotoxicity, dose response, cytotoxicity control for Shn3 inhibitor project, CellTiter-Glo, cherry-picked (AID 624134); assay type: functional, cell-based
[20] = control 3'UTR Renilla luciferase suppression, dose response, counter-screen for Shn3 inhibitor project, cell-based, Clone20-Shn3RL, cherry-picked (AID 624133); assay type: functional
[21] = luciferase reporter signal reduction – luminescence, H4-C neuroglioblastoma cells, dose response (AID 2458); assay type: functional, cell-based;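 also: H4 neuroglioblastoma cells stably carrying a luciferase reporter gene fusion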
cells [22] = assay type: functional, cell-based
[23] = inhibitors of SNCA 5'UTR-driven translation, confirmation, luminescence, H4 neuroglioblastoma cells, dose confirmation (AID 2454); assay type: functional, cell-based;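 also: H4 neuroglioblastoma cells carrying an alpha-synuclein 5'UTR luciferase reporter; potency for inhibition of the luciferase signal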
Jurkat = experiment: antigen receptor-induced NF-kB inhibitors, dose response, Jurkat, luciferase reporter, luminescence, B- and T-cell (AID 489004); assay type: functional, cell-based; details: Homo sapiens;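 also: NF-kB luciferase reporter Jurkat cells stimulated with PMA plus ionomycin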
[24] = cytotoxicity in HEK-293T NF-kB-Luc cells, dose response, cytotoxicity control for B/T-cell NF-kB inhibitor project, cell-based, uHTS hits (AID 489019); assay type: functional;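 also: IC50 reflects cytotoxicity as loss of cell viability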
P388/ADR = experiment: cells; assay type: functional; details: Mus musculus
SN12K1 = experiment: cells; assay type: functional; details: Homo sapiens
P388 = experiment: cells; assay type: functional; details: Mus musculus
[25] = A Cell Based Secondary Assay To Explore Cytotoxicity of Compounds that Sensitize Mycobacterium Tuberculosis to Beta-Lactam Antibiotics.; assay type: functional
cells [26] = assay type: functional, cell-based; remark: listed apart in the source
cells [27] = assay type: functional, cell-based; remark: listed apart in the source
[28] = target: T3, Microphthalmia-associated transcription factor (Homo sapiens, UniProt O75030); experiment: TRPM1 promoter luciferase signal decrease, dose response, MITF inhibitor project, cell-based, SK-MEL-5, cherry-picked, set 3 (AID 493073); assay type: functional
T3 sequence (O75030 whole entry): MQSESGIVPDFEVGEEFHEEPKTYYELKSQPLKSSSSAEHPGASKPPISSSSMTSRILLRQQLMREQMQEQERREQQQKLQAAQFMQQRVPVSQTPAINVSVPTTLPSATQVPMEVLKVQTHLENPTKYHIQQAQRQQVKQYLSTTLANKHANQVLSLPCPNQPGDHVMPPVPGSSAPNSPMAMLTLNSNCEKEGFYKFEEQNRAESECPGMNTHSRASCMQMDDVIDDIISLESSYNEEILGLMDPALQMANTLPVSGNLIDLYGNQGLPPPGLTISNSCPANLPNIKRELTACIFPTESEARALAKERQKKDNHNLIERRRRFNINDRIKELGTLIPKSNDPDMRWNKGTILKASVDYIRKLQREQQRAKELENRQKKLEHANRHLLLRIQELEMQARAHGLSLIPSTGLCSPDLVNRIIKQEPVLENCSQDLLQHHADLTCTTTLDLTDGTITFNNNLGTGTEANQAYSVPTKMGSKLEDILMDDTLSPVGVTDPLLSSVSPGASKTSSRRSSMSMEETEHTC

Cytochrome P450 3A4 = Cytochrome P450 3A4 (Homo sapiens, UniProt P08684);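 also: CYP3A4 tested as one member of a cytochrome P450 panel screen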
Cytochrome P450 3A4, sequence (P08684 whole entry): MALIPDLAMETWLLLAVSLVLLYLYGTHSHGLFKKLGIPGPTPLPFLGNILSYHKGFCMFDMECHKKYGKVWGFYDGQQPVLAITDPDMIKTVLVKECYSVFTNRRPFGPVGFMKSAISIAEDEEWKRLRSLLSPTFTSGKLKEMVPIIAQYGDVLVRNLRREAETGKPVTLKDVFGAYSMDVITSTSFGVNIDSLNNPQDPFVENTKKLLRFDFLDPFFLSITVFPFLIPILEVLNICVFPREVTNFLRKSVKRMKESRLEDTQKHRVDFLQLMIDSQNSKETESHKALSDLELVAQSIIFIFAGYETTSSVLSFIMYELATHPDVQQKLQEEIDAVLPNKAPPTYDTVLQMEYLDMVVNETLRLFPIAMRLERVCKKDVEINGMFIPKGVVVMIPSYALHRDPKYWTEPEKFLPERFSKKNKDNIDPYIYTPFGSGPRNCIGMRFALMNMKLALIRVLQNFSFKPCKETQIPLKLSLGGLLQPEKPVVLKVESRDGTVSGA

Cytochrome P450 2C9 = Cytochrome P450 2C9 (Homo sapiens, UniProt P11712)

Tumor necrosis factor, sequence (P01375 whole entry, the tested form may be a part): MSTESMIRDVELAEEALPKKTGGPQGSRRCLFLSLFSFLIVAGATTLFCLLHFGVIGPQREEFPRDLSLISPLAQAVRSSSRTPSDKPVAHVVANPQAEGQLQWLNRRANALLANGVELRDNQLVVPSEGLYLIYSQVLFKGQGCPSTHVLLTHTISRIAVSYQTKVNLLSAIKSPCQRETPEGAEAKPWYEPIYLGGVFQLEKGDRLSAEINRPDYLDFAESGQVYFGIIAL

## CC1(C)Cc2c(sc(NC(=O)C(=O)N3CCCCC3)c2C(=O)O)CO1
Tumor necrosis factor
  IC50: > 20 µM (inactive)
[1]
  IC50: > 20 µM (inactive)
[2]
  IC50: > 20 µM (inactive)
HEK293
  IC50: > 20 µM (inactive)

## CC(C)[C@H](Nc1nc(-c2ccccc2)nc2c1oc1ccccc12)C(=O)O
Leucine aminopeptidase
  IC50: 25.2 µM (active)

## CCc1cc2cc(C(=O)Nc3ccc(C)cc3)sc2s1
[3]
  EC50: 28.1 µM (not active)
[4]
  EC50: 50.4 µM (not active)
[5]
  IC50: > 39.8 µM (not active)
[6]
  EC50: 50.8 µM (not active)
[7]
  IC50: 2.25 µM (active)

## CC1(C)Cc2c(sc(NC(=O)c3ccccc3)c2C(=O)O)CO1
Tumor necrosis factor
  IC50: > 20 µM (inactive)
[1]
  IC50: > 20 µM (inactive)
[2]
  IC50: > 20 µM (inactive)
HEK293
  IC50: > 20 µM (inactive)

## CCOc1ccc(-c2cc(CCCC(=O)Nc3cc(OC)ccc3OC)no2)cc1
[8]
  EC50: 13 µM (active)
[9]
  EC50: 18.8 µM (active)
[10]
  IC50: > 100 µM (not active)
[11]
  EC50: 26.9 µM (active)
[12]
  EC50: 11.9 µM (active)
HT-1080
  EC50: > 50 µM (not active)
Cytochrome P450 2C19
  AC50: 3.16 µM (inconclusive)

## CC(C)(C)c1ccc(NC(=O)COc2ccc(-n3ccnc3)cc2)cc1
[13]
  EC50: > 50 µM (active)
[14]
  EC50: 1.27 µM (active)
[15]
  EC50: > 60 µM (not active)
[16]
  CC50: > 20 µM (active)
Cells [17]
  IC50: 26.1 µM (active)
[18]
  AC50: 5.27 µM (active)
[19]
  AC50: 43.1 µM (active)
[20]
  AC50: 10 µM (active)

## COc1ccc(/C(C)=C2/SC(=S)N(CCC(=O)O)C2=O)cc1
Leucine aminopeptidase
  IC50: 27.4 µM (active)

## C=CCNC(=O)c1ccc(-c2nc(-c3ccc(Cl)cc3Cl)cs2)cc1
[3]
  EC50: 10.2 µM (not active)
[4]
  EC50: 17.1 µM (not active)
[6]
  EC50: 10.9 µM (not active)

## COc1ccc(-c2nc3cc(NC(=O)Cc4ccc(OC)c(OC)c4)ccc3o2)cc1
[13]
  EC50: > 50 µM (active)

## COC(=O)Cc1ccc(NC(=O)c2ccc(C(C)(C)C)cc2)cc1
[8]
  EC50: < 0.1 µM (active)
[21]
  EC50: 0.067 µM (active)
[9]
  EC50: 1.8 µM (active)
Cells [22]
  EC50: 0.263 µM (active)
[11]
  EC50: < 0.1 µM (active)
[12]
  EC50: < 0.1 µM (active)
HT-1080
  EC50: > 50 µM (not active)
[23]
  EC50: 0.161 µM (active)
Jurkat
  IC50: 0.19 µM (active)
[24]
  IC50: 78.9 µM (inactive)

## O=C1NC(=S)NC(=O)C1=C(O)Nc1ccccc1
[13]
  EC50: > 50 µM (active)
P388/ADR
  GI50: 25.2 µM (inactive)
SN12K1
  GI50: 15 µM (inactive)
P388
  GI50: 16.7 µM (inactive)

## O=C1C2ON(c3ccc(Br)cc3)C(c3cccnc3)C2C(=O)N1C1CCCCC1 (stereo not given)
[25]
  CC50: 37.9 µM (active)

## COc1cccc(CNC(=O)CCCn2c(=S)[nH]c3cc4c(cc3c2=O)OCO4)c1
[5]
  IC50: > 39.8 µM (not active)
Cells [26]
  EC50: > 350 µM (not active)
Cells [27]
  EC50: 54.4 µM (active)
[7]
  IC50: 4.26 µM (active)

## CC(=O)Nc1nc2ccccc2n1S(=O)(=O)c1ccc(Cl)cc1
Tumor necrosis factor
  IC50: > 20 µM (inactive)
[1]
  IC50: 4.56 µM (active)
[2]
  IC50: > 20 µM (inactive)
HEK293
  IC50: > 20 µM (inactive)

## CCOC(=O)/C(=N\Nc1ccccc1)c1csc(Nc2ccc(C)cc2)n1
[25]
  CC50: 31.3 µM (active)
[14]
  EC50: 2.13 µM (active)
[15]
  EC50: > 30 µM (not active)

## O=C(N/N=C/c1ccc([N+](=O)[O-])s1)c1ccccc1Br
[9]
  EC50: 0.24 µM (active)
HT-1080
  EC50: > 50 µM (not active)
[28]
  AC50: 3.65 µM (active)
Cytochrome P450 3A4
  AC50: 22.4 µM (inconclusive)
Cytochrome P450 2C9
  AC50: 39.8 µM (inconclusive)
